# Laboratory results as given in ChEMBL document CHEMBL3751838, “Cytotoxic Activity of Salicylic Acid-Containing Drug Models with Ionic and Covalent Binding” (ACS Med Chem Lett, 2015).
# What was measured:
# [1] = Cytotoxicity against human Caco2 cells after 24 hrs by MTT assay; type: functional, cell-based, Caco-2
# [2] = cells; type: ADME, cell-based; details: Homo sapiens, 3215LS, 24 h
# Description: Cytotoxicity against human 3215LS cells after 24 hrs by MTT assay
# [3] = Aqueous solubility of compound at room temperature; type: physicochemical; details: water
SMILES,IC50 ([1]; caco-2) [mM],"IC50 ([1]; Homo sapiens, Caco-2, 24 h) [mM]",other results
CCCCCCn1cc[n+](C)c1 [listing 1 of 2 here],6.21,,
CCCCn1cc[n+](C)c1 [listing 1 of 3 here],18.8,,
CCn1cc[n+](C)c1 [listing 1 of 2 here],5.97,,
O=C(O)c1ccccc1O [SALICYLIC ACID],,5,IC50 [2]: 1.14 mM
C[n+]1ccn(CCOC(=O)c2ccccc2O)c1.[Cl-],3.82,,solubility [3]: 267 mg/mL
COC(=O)[C@H](C)N,,6.24,IC50 [2]: 2.63 mM
CCCCn1cc[n+](C)c1 [listing 2 of 3 here],11.2,,
C[n+]1ccn(CCOC(=O)c2ccccc2O)c1,,4.77,
C[n+]1ccn(CCCOC(=O)c2ccccc2O)c1,,2.55,IC50 [2]: 3.19 mM
CCn1cc[n+](C)c1 [listing 2 of 2 here],32.1,,
CCCCCCn1cc[n+](C)c1 [listing 2 of 2 here],1.96,,
CCCCn1cc[n+](C)c1 [listing 3 of 3 here],4.34,,
